Measured values as given in patent publication US8420675B2, “Aminotetrahydroindazoloacetic acids” (Hoffmann-La Roche Inc., priority 2008, dated 2013).

These compounds were tested against T1, human CRTH2 (Homo sapiens, UniProt Q9Y5Y4) (assay: Human CRTH2 Receptor Binding Assay (whole cell, [3H]ramatroban competition)). Settings: CHO-K1 cells expressing human CRTH2 and G-alpha16; 20 nM [3H]ramatroban; 1 hour, room temperature.
T1 construct: expressed in transfected cells
T1 sequence (Q9Y5Y4 1-395): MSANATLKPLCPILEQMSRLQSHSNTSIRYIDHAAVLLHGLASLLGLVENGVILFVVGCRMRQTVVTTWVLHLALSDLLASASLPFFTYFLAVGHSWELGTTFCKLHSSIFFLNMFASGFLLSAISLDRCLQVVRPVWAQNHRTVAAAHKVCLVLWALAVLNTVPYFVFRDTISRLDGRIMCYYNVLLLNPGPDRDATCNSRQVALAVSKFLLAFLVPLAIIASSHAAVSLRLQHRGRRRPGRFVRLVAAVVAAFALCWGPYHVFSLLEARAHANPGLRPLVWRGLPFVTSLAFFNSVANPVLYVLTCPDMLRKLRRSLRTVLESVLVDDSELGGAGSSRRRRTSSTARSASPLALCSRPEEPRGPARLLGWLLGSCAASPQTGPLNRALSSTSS
From the text: A whole cell receptor binding assay using [^3H]ramatroban as the competing radioactive ligand was employed to evaluate the compound binding activity to human CRTH2. The radioactive ligand [^3H]ramatroban was synthesized according to Sugimoto et. al. (Eur. J. Pharmacol. 524, 30-37, 2005) to a specific activity of 42 Ci/mmol.
A cell line stably expressing human CRTH2 was established by transfecting CHO-K1 cells with two mammalian expression vectors that harbored human CRTH2 and G-alpha16 cDNAs, respectively, using FuGene® 6 transfection reagent (from Roche). Stable clones expressing CRTH2 were selected by staining each clone with BM16 (BD Pharmingen™ from BD Biosciences, a division of Becton, Dickinson and Company), which is a rat monoclonal antibody to human CRTH2. The cells were maintained as monolayer cultures in Ham's F-12 medium containing 10% fetal bovine serum, 100 units/mL penicillin, 100 μg/mL streptomycin, 2 mM glutamine, 0.5 mg/mL G418 (geneticin) for CRTH2, and 0.2 mg/mL hygromycin-B (for G-alpha 16). For whole cell receptor binding assay, the monolayer cells were rinsed once with PBS (phosphate buffered saline), dissociated using ethylenediaminetetraacetate (Versene™ EDTA Lonza Inc.), and suspended in PBS containing 10 mM MgCl2 and 0.06% BSA (bovine serum albumin) at 1.5×10^6 cells/mL.
The binding reactions (0.2 mL) were performed in 96-well plates at room temperature in PBS containing 1.5×10^5 cells, 10 mM MgCl2, 0.06% BSA, 20 nM [^3H]ramatroban, and test compound at various concentrations. After 1 hour of binding reactions, the cells were harvested on GF™/B filter microplates (microtiter plates with embedded glass fiber from PerkinElmer, Inc.) and washed 5 times with PBS using a Filtermate™ Harvester (a cell harvester that harvests and washes cells from microplates from PerkinElmer, Inc.). The radioactivities bound to the cells were determined using a microplate scintillation counter (TopCount® NXT, from PerkinElmer, Inc.) after adding 50 μL of Microscint™ 20 scintillation fluid (from PerkinElmer, Inc.) to each well of the filter plates. The radioactivity from non-specific binding was determined by replacing compound with 10 μM of 15(R)-15-methyl PGD2 (from Cayman Chemical Company) in the reaction mixtures. The radioactivity bound to the cells in the absence of compound (total binding) was determined by replacing compound with 0.25% of DMSO (dimethyl sulfoxide) in the reaction mixture. Specific binding data were obtained by subtracting the radioactivity of non-specific binding from each binding data.
The IC50 value is defined as the concentration of the tested compound that is required for 50% inhibition of total specific binding. In order to calculate the IC50 value, the percent inhibition data were determined for 7 concentrations for each compound. The percent inhibition for a compound at each concentration was calculated according to the following formula, [1-(specific binding in the presence of compound)/(total specific binding)]x100. The IC50 value was then obtained by fitting the percent inhibition data to a sigmoidal dose-response (4 parameter logistic) model in the XLfit® software Excel add-in program [from ID Business Solutions Ltd., model 205, where F(x)=(A+(B−A)/(1+((C/x)^D)))].
`CN([C@@H]1CCCc2c1cnn2CC(=O)O)S(=O)(=O)c1ccc(Oc2ccc(Cl)cc2)c(C(F)(F)F)c1` [Example 9-5a, ((R)-4-{[4-(4-Chloro-phenoxy)-3-trifluoromethyl-benzenesulfonyl]-methyl-amino}-4,5,6,7-tetrahydro-indazol-1-yl)-acetic acid] gave an IC50 of 0.0082 µM.
`CN([C@@H]1CCCc2c1cnn2CC(=O)O)S(=O)(=O)c1ccc(Oc2ccc(Cl)cc2Cl)c(Cl)c1` [Example 9-6a, ((R)-4-{[3-Chloro-4-(2,4-dichloro-phenoxy)-benzenesulfonyl]-methyl-amino}-4,5,6,7-tetrahydro-indazol-1-yl)-acetic acid] showed an IC50 of 0.0217 µM.
For `CN([C@@H]1CCCc2c1cnn2CC(=O)O)S(=O)(=O)c1ccc(Oc2ccc(C(C)(C)C)cc2)c(Cl)c1` [Example 9-7a, ((R)-4-{[4-(4-tert-Butyl-phenoxy)-3-chloro-benzenesulfonyl]-methyl-amino}-4,5,6,7-tetrahydro-indazol-1-yl)-acetic acid], the IC50 was 0.0126 µM.
With `CN([C@@H]1CCCc2c1cnn2CC(=O)O)S(=O)(=O)c1ccc(Oc2ccc(Cl)cc2Cl)cc1Cl` [Example 9-8a, ((R)-4-{[2-Chloro-4-(2,4-dichloro-phenoxy)-benzenesulfonyl]-methyl-amino}-4,5,6,7-tetrahydro-indazol-1-yl)-acetic acid] the IC50 was 0.0914 µM.
For `CN([C@@H]1CCCc2c1cnn2CC(=O)O)S(=O)(=O)c1ccc(Oc2ccc(F)cc2Cl)cc1Cl` [Example 9-9a, ((R)-4-{[2-Chloro-4-(2-chloro-4-fluoro-phenoxy)-benzenesulfonyl]-methyl-amino}-4,5,6,7-tetrahydro-indazol-1-yl)-acetic acid], the IC50 was 0.07 µM.
`CN([C@@H]1CCCc2c1cnn2CC(=O)O)S(=O)(=O)c1ccc(Oc2ccccc2Cl)cc1Cl` [Example 9-10a, ((R)-4-{[2-Chloro-4-(2-chloro-phenoxy)-benzenesulfonyl]-methyl-amino}-4,5,6,7-tetrahydro-indazol-1-yl)-acetic acid] gave an IC50 of 0.0972 µM.
With `CN([C@@H]1CCCc2c1cnn2CC(=O)O)S(=O)(=O)c1ccc(Oc2ccc(Cl)cc2F)c(Cl)c1` [Example 9-11a, ((R)-4-{[3-Chloro-4-(4-chloro-2-fluoro-phenoxy)-benzenesulfonyl]-methyl-amino}-4,5,6,7-tetrahydro-indazol-1-yl)-acetic acid] the IC50 was 0.0072 µM.
`CN([C@@H]1CCCc2c1cnn2CC(=O)O)S(=O)(=O)c1ccc(Oc2ccc(Cl)cc2)c(F)c1` [Example 9-12a, ((R)-4-{[4-(4-Chloro-phenoxy)-3-fluoro-benzenesulfonyl]-methyl-amino}-4,5,6,7-tetrahydro-indazol-1-yl)-acetic acid] showed an IC50 of 0.0074 µM.
For `CN([C@@H]1CCCc2c1cnn2CC(=O)O)S(=O)(=O)c1ccc(Oc2ccccc2)c(Cl)c1` [Example 9-13a, {(R)-4-[(3-Chloro-4-phenoxy-benzenesulfonyl)-methyl-amino]-4,5,6,7-tetrahydro-indazol-1-yl}-acetic acid], the IC50 was 0.0095 µM.
`CN([C@@H]1CCCc2c1cnn2CC(=O)O)S(=O)(=O)c1ccc(Oc2ccc(F)cc2)c(Cl)c1` [Example 9-14a, ((R)-4-{[3-Chloro-4-(4-fluoro-phenoxy)-benzenesulfonyl]-methyl-amino}-4,5,6,7-tetrahydro-indazol-1-yl)-acetic acid] gave an IC50 of 0.0044 µM.
For `Cc1ccc(Oc2ccc(S(=O)(=O)N(C)[C@@H]3CCCc4c3cnn4CC(=O)O)cc2Cl)cc1` [Example 9-15a, {(R)-4-[(3-Chloro-4-p-tolyloxy-benzenesulfonyl)-methyl-amino]-4,5,6,7-tetrahydro-indazol-1-yl}-acetic acid], the IC50 was 0.0103 µM.
`CN([C@@H]1CCCc2c1cnn2CC(=O)O)S(=O)(=O)c1ccc(Oc2ccc(F)cc2Cl)c(Cl)c1` [Example 9-16a, ((R)-4-{[3-Chloro-4-(2-chloro-4-fluoro-phenoxy)-benzenesulfonyl]-methyl-amino}-4,5,6,7-tetrahydro-indazol-1-yl)-acetic acid] showed an IC50 of 0.008 µM.
`COc1cc(F)ccc1Oc1ccc(S(=O)(=O)N(C)[C@@H]2CCCc3c2cnn3CC(=O)O)cc1Cl` [Example 9-17a, ((R)-4-{[3-Chloro-4-(4-fluoro-2-methoxy-phenoxy)-benzenesulfonyl]-methyl-amino}-4,5,6,7-tetrahydro-indazol-1-yl)-acetic acid] showed an IC50 of 0.0129 µM.
`Cc1ccc(Cl)c(Oc2ccc(S(=O)(=O)N(C)[C@@H]3CCCc4c3cnn4CC(=O)O)cc2Cl)c1` [Example 9-18a, ((R)-4-{[3-Chloro-4-(2-chloro-5-methyl-phenoxy)-benzenesulfonyl]-methyl-amino}-4,5,6,7-tetrahydro-indazol-1-yl)-acetic acid] gave an IC50 of 0.0134 µM.
In the case of `Cc1ccc(Oc2ccc(S(=O)(=O)N(C)[C@@H]3CCCc4c3cnn4CC(=O)O)cc2Cl)c(C)c1` [Example 9-19a, ((R)-4-{[3-Chloro-4-(2,4-dimethyl-phenoxy)-benzenesulfonyl]-methyl-amino}-4,5,6,7-tetrahydro-indazol-1-yl)-acetic acid], the IC50 is reported as 0.0114 µM.
`COc1cc(Cl)ccc1Oc1ccc(S(=O)(=O)N(C)[C@@H]2CCCc3c2cnn3CC(=O)O)cc1Cl` [Example 9-20a, ((R)-4-{[3-Chloro-4-(4-chloro-2-methoxy-phenoxy)-benzenesulfonyl]-methyl-amino}-4,5,6,7-tetrahydro-indazol-1-yl)-acetic acid] showed an IC50 of 0.0102 µM.
With `CN([C@@H]1CCCc2c1cnn2CC(=O)O)S(=O)(=O)c1ccc(Oc2ccc(Cl)c(F)c2)c(Cl)c1` [Example 9-21a, ((R)-4-{[3-Chloro-4-(4-chloro-3-fluoro-phenoxy)-benzenesulfonyl]-methyl-amino}-4,5,6,7-tetrahydro-indazol-1-yl)-acetic acid] the IC50 was 0.0132 µM.
`CN([C@@H]1CCCc2c1cnn2CC(=O)O)S(=O)(=O)c1ccc(Oc2cc(F)ccc2F)c(Cl)c1` [Example 9-22a, ((R)-4-{[3-Chloro-4-(2,5-difluoro-phenoxy)-benzenesulfonyl]-methyl-amino}-4,5,6,7-tetrahydro-indazol-1-yl)-acetic acid] was tested, and the IC50 was 0.0242 µM.
`CN([C@@H]1CCCc2c1cnn2CC(=O)O)S(=O)(=O)c1ccc(Oc2ccc(Br)cc2)c(Cl)c1` [Example 9-23a, ((R)-4-{[4-(4-Bromo-phenoxy)-3-chloro-benzenesulfonyl]-methyl-amino}-4,5,6,7-tetrahydro-indazol-1-yl)-acetic acid] was tested, and the IC50 was 0.0067 µM.
`CN([C@@H]1CCCc2c1cnn2CC(=O)O)S(=O)(=O)c1ccc(Oc2ccc(F)c(Cl)c2)c(Cl)c1` [Example 9-24a, ((R)-4-{[3-Chloro-4-(3-chloro-4-fluoro-phenoxy)-benzenesulfonyl]-methyl-amino}-4,5,6,7-tetrahydro-indazol-1-yl)-acetic acid] was tested, and the IC50 was 0.0165 µM.
`CN([C@@H]1CCCc2c1cnn2CC(=O)O)S(=O)(=O)c1ccc(Oc2ccc(S(C)(=O)=O)cc2)c(Cl)c1` [Example 9-25a, ((R)-4-{[3-Chloro-4-(4-methanesulfonyl-phenoxy)-benzenesulfonyl]-methyl-amino}-4,5,6,7-tetrahydro-indazol-1-yl)-acetic acid] was tested, and the IC50 was 0.0209 µM.
Compound `Cc1ccccc1Oc1ccc(S(=O)(=O)N(C)[C@@H]2CCCc3c2cnn3CC(=O)O)cc1Cl` [Example 9-26a, {(R)-4-[(3-Chloro-4-o-tolyloxy-benzenesulfonyl)-methyl-amino]-4,5,6,7-tetrahydro-indazol-1-yl}-acetic acid] has an IC50 of 0.0237 µM.
